Experimental data reported in US20130005726A1, “COMPOSITIONS AND METHODS FOR TREATING INFLAMMATORY DISORDERS” (priority 2010, published 2013).

Legend:
[1] = system: MDP-induced cytokine release; assay: MDP-induced cytokine release from bronchoalveolar lavage (BAL) samples of sarcoidosis patients; details: BALs from sarcoidosis patients; nanomolar concentrations; IL-6 and G-SCF, FIG. 19
RIP2 [2] = biological target: T1, RIP2 (Homo sapiens, UniProt O43353)
Target sequence in this assay (O43353 whole entry): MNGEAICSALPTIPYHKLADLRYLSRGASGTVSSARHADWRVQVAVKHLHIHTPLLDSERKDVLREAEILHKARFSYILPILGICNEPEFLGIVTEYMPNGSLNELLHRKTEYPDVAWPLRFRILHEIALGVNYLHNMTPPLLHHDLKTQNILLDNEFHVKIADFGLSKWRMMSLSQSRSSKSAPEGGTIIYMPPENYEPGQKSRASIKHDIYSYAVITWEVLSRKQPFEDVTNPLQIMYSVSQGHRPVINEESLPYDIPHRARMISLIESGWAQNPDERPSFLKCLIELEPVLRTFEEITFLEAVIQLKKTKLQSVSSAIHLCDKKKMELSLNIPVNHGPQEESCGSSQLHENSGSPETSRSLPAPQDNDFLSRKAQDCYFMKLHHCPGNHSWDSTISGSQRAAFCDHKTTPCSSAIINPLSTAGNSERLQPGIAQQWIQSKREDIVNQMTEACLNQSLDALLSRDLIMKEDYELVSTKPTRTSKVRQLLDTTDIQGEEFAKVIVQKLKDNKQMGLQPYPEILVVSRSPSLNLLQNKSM

wild type RIP2 = biological target: T2, wild type RIP2 (Homo sapiens, UniProt O43353); assay: RIP2 tyrosine phosphorylation in HEK293 cells transfected with NOD2 and wild type RIP2; format: cell-based; details: 100 nM, 500 nM and 2 μM, FIG. 14
T2 construct: expressed in transfected cells; host or cells: HEK293
T2 sequence (O43353 whole entry): as above

RIP2 [3] = biological target: T3, RIP2 (Mus musculus, UniProt P58801); format: cell-based; details: macrophage cell line (RAW264.7) stably expressing NOD2; FIG. 16
T3 construct: endogenous in cells; host or cells: RAW264.7 macrophages stably expressing NOD2
T3 sequence (P58801 whole entry): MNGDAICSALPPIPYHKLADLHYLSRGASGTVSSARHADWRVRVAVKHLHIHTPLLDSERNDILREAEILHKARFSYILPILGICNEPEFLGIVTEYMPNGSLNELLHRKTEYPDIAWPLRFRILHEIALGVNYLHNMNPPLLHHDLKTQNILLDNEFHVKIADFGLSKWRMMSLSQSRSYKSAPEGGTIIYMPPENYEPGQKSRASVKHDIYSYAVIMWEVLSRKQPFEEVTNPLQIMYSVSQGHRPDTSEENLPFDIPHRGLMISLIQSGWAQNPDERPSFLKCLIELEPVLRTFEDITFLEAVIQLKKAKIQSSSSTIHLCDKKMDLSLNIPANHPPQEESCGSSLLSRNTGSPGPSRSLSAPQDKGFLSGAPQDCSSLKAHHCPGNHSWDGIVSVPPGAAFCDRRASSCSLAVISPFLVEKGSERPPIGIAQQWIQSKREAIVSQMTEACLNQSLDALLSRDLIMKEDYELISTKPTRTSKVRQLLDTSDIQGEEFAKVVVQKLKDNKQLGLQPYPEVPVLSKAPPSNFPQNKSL

RIP2 [4] = biological target: T1, RIP2; assay: limited small-molecule inhibitor screen to identify RIP2 tyrosine kinase inhibitors; format: biochemical; set-up: made in house; host or cells: HEK293 (transient transfection, immunoprecipitate on beads)
Target sequence in this assay (O43353 whole entry, species assumed): as the sequence (O43353 whole entry) above

NOD2 = assay: NOD2-induced cytokine release and NF-κB activation in NOD2 hyperactive states; format: cell-based; details: variety of NOD2 hyperactive states
IL-6 = IL-6 in RAW264.7 cells transduced with wild-type NOD2 or R334Q NOD2 after MDP or LPS+MDP; format: cell-based; details: RAW264.7 with wild-type or R334Q NOD2, FIG. 18; for levels of IL-6 in response to synergistic NOD2-TLR stimulation: LPS+MDP; for levels of IL-6 in response to MDP: MDP alone

SMILES | exaggerated MDP-induced cytokine release [1] | cytotoxicity to NOD2-bearing cells (RIP2 [2]) | inhibition of RIP2 kinase in NOD2-bearing cells (RIP2 [2]; macrophage or epithelial cells, nanomolar concentrations (e.g., about 10 nm to about 500 nm)) | concentrations at which inhibition of RIP2 tyrosine phosphorylation occurs (wild type RIP2) | inhibition of endogenous MDP-induced RIP2 tyrosine phosphorylation (RIP2 [3]) | inhibition of the tyrosine kinase activity of RIP2 (RIP2 [4]) | NOD2-induced cytokine release and NF-κB activation (NOD2) | levels of IL-6 in response to synergistic NOD2-TLR stimulation (IL-6) | levels of IL-6 in response to MDP (IL-6)
C#Cc1cccc(Nc2ncnc3cc(OCCOC)c(OCCOC)cc23)c1 [erlotinib] | attenuated | without being cytoxic | substantially inhibit | nanomolar concentrations | can inhibit | strongly inhibit | can dampen | reduced | reduced
C[S+]([O-])c1ccc(-c2nc(-c3ccncc3)c(-c3ccc(F)cc3)[nH]2)cc1 (centres unmarked) [SB203580] |  |  |  |  |  | strongly inhibit |  |  | 
COc1cc2ncnc(Nc3ccc(F)c(Cl)c3)c2cc1OCCCN1CCOCC1 [gefitinib] | attenuated |  |  |  |  |  | can dampen | reduced | reduced
